Like-named read-outs stand apart in the source and are kept apart here.
Legend:
[1] = system: Jurkat (clone E6-1) cells with NFAT luciferase reporter; test: Jurkat reporter assay (NFAT Luciferase); assay type: cell-based; conditions: Homo sapiens
[2] = biological target: Recombinant human Cbl-b (aa 36-427) (Homo sapiens, UniProt Q13191); test: Cbl-b Biochemical Assay (TR-FRET); conditions: read-out: TR-FRET hCbl-b IC50
[3] = biological target: T1, Recombinant human c-Cbl (aa 47-435) (Homo sapiens, UniProt P22681); test: c-Cbl Biochemical Assay (TR-FRET); conditions: hc-Cbl Biochemical Assay (TR-FRET); read-out: TR-FRET hcCbl IC50
T1 sequence (P22681 47-435): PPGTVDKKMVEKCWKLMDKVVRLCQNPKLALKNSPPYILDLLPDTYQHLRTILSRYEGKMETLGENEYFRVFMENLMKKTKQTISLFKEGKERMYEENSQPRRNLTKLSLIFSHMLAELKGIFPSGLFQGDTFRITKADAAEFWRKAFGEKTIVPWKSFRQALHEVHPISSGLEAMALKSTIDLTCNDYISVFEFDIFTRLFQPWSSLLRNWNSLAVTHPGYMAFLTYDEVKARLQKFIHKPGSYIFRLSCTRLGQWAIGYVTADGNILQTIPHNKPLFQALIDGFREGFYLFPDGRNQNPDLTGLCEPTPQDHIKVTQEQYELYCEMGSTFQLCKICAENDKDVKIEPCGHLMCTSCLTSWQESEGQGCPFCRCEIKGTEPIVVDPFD

[4] = Jurkat NFAT luciferase reporter cells, anti-CD3 stimulation, 6 hr, read-out: Jurkat NFAT EC50
[5] = Jurkat, 6 h, read-out: Jurkat NFAT EC50 (μM)

Chain of Recombinant human Cbl-b (aa 36-427) (Q13191 36-427): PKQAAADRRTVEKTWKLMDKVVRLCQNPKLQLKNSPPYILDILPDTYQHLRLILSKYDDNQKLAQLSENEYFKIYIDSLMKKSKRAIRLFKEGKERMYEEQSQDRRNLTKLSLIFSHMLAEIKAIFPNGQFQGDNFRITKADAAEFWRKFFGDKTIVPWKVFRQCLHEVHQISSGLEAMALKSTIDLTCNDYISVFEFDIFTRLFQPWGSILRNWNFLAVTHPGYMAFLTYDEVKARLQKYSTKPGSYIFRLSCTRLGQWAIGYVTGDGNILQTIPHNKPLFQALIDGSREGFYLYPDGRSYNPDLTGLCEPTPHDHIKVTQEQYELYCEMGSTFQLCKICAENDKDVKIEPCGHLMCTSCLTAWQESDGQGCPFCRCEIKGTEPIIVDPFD

In the case of `Cn1cnnc1-c1cc(C#N)ccc1-c1cc(-c2nc3cc(CNCC4CCC4)cc(F)c3o2)nc(C2CC2)c1` [AHE-2, 4-[2-(5-{[(cyclobutylmethyl)amino]methyl}-7-fluoro-1,3-benzoxazol-2-yl)-6-cyclopropylpyridin-4-yl]-3-(4-methyl-1,2,4-triazol-3-yl) benzonitrile], the EC50 [1, 4] is reported as < 0.2 µM, the IC50 [2] is reported as < 0.2 µM and the IC50 [3] is reported as < 0.2 µM.

`CO[C@@H](C)CNCc1cc(C)c2oc(-c3cc(-c4ccc(F)cc4-c4nncn4C)cc(C4CC4)n3)nc2c1` [AHF-1, [(2-{6-cyclopropyl-4-[4-fluoro-2-(4-methyl-1,2,4-triazol-3-yl)phenyl]pyridin-2-yl}-7-methyl-1,3-benzoxazol-5-yl)methyl][(2S)-2-methoxypropyl]amine] was tested, and the EC50 [1, 4] was < 0.2 µM, the IC50 [2] was < 0.2 µM and the IC50 [3] was < 0.2 µM.

With `COCCNCc1cc2nc(-c3cc(-c4ccc(F)cc4-c4nncn4C)cc(C4CC4)n3)oc2c(C)c1F` [AHG-1, [(2-{6-cyclopropyl-4-[4-fluoro-2-(4-methyl-1,2,4-triazol-3-yl)phenyl]pyridin-2-yl}-6-fluoro-7-methyl-1,3-benzoxazol-5-yl)methyl](2-methoxyethyl)amine] the EC50 [1, 4] was < 0.2 µM, the IC50 [2] was < 0.2 µM and the IC50 [3] was < 0.2 µM.

With `CN(C)Cc1cc2nc(-c3cc(-c4ccc(F)cc4-c4nncn4C)cc(C4CC4)n3)oc2c(F)c1F` [AHH-3, [(2-{6-cyclopropyl-4-[4-fluoro-2-(4-methyl-1,2,4-triazol-3-yl)phenyl]pyridin-2-yl}-6,7-difluoro-1,3-benzoxazol-5-yl)methyl]dimethylamine] the EC50 [1, 5] was 1 to 10 µM, the IC50 [2] was < 0.2 µM and the IC50 [3] was 0.2 to 1 µM.

For `Cn1cnnc1-c1cc(Cl)ccc1-c1cc(-c2nc3cc(CNCC4(O)CCC4)cc(F)c3o2)nc(C2CC2)c1` [AHI-5, 1-({[(2-{4-[4-chloro-2-(4-methyl-1,2,4-triazol-3-yl)phenyl]-6-cyclopropylpyridin-2-yl}-7-fluoro-1,3-benzoxazol-5-yl)methyl]amino}methyl)cyclobutan-1-ol], the EC50 [1, 4] was < 0.2 µM, the IC50 [2] was < 0.2 µM and the IC50 [3] was < 0.2 µM.

`Cc1c(F)c(CNCC2(O)CCC2)cc2nc(-c3cc(-c4ccc(F)cc4-c4nncn4C)cc(C4CC4)n3)oc12` [AHJ-1, 1-({[(2-{6-cyclopropyl-4-[4-fluoro-2-(4-methyl-1,2,4-triazol-3-yl)phenyl]pyridin-2-yl}-6-fluoro-7-methyl-1,3-benzoxazol-5-yl)methyl]amino}methyl)cyclobutan-1-ol] was tested, and the EC50 [1, 4] was < 0.2 µM, the IC50 [2] was < 0.2 µM and the IC50 [3] was < 0.2 µM.

In the case of `Cc1c(F)c(CNCC(C)(C)O)cc2nc(-c3cccc(-c4ccc(F)cc4-c4nncn4C)c3)oc12` [AHK-4, 1-[({6-fluoro-2-[4′-fluoro-2′-(4-methyl-1,2,4-triazol-3-yl)-[1,1′-biphenyl]-3-yl]-7-methyl-1,3-benzoxazol-5-yl}methyl)amino]-2-methylpropan-2-ol], the EC50 [1, 4] is reported as < 0.2 µM, the IC50 [2] is reported as < 0.2 µM and the IC50 [3] is reported as < 0.2 µM.

`Cn1cnnc1-c1cc(F)ccc1-c1cc(-c2nc3cc(C(C)(C)O)c(F)c(F)c3o2)nc(C2CC2)c1` [AHL-7, 2-(2-{6-cyclopropyl-4-[4-fluoro-2-(4-methyl-1,2,4-triazol-3-yl)phenyl]pyridin-2-yl}-6,7-difluoro-1,3-benzoxazol-5-yl)propan-2-ol] showed an EC50 [1, 4] of 1 to 10 µM, an IC50 [2] of 0.2 to 1 µM and an IC50 [3] of 1 to 10 µM.

With `Cn1cnnc1-c1cc(F)ccc1-c1cc(-c2nc3cc(CN)cc(F)c3o2)nc(C2CC2)c1` [AHM-3, 1-(2-{6-cyclopropyl-4-[4-fluoro-2-(4-methyl-1,2,4-triazol-3-yl)phenyl]pyridin-2-yl}-7-fluoro-1,3-benzoxazol-5-yl)methanamine] the EC50 [1, 5] was 1 to 10 µM, the IC50 [2] was < 0.2 µM and the IC50 [3] was 0.2 to 1 µM.

For `COC(C)(C)CNCc1cc(C(F)(F)F)c2oc(-c3cccc(-c4ccc(F)cc4-c4nncn4C)c3)nc2c1` [AI-2, N-((2-(4′-Fluoro-2′-(4-methyl-4H-1,2,4-triazol-3-yl)-[1,1′-biphenyl]-3-yl)-7-(trifluoromethyl)benzo[d]oxazol-5-yl)methyl)-2-methoxy-2-methylpropan-1-amine], the EC50 [1, 4] was 0.2 to 1 µM, the IC50 [2] was < 0.2 µM and the IC50 [3] was 1 to 10 µM.

`Cn1cnnc1-c1cc(F)ccc1-c1cccc(-c2nc3cc(CNCC4(O)CCCC4)cc(C(F)(F)F)c3o2)c1` [AK-2, 1-((((2-(4′-Fluoro-2′-(4-methyl-4H-1,2,4-triazol-3-yl)-[1,1′-biphenyl]-3-yl)-7-(trifluoromethyl)benzo[d]oxazol-5-yl)methyl)amino)methyl)cyclopentan-1-ol, Acetate] was tested, and the EC50 [1, 4] was 0.2 to 1 µM, the IC50 [2] was < 0.2 µM and the IC50 [3] was 1 to 10 µM.

With `C[C@@H](O)CNCc1cc(C(F)(F)F)c2oc(-c3cccc(-c4ccc(F)cc4-c4nncn4C)c3)nc2c1` [AL-2, (R)-1-(((2-(4′-Fluoro-2′-(4-methyl-4H-1,2,4-triazol-3-yl)-[1,1′-biphenyl]-3-yl)-7-(trifluoromethyl)benzo[d]oxazol-5-yl)methyl)amino)propan-2-ol] the EC50 [1, 4] was 0.2 to 1 µM, the IC50 [2] was < 0.2 µM and the IC50 [3] was 1 to 10 µM.

`C[C@H](O)CNCc1cc(C(F)(F)F)c2oc(-c3cccc(-c4ccc(F)cc4-c4nncn4C)c3)nc2c1` [AM-2, (S)-1-(((2-(4′-Fluoro-2′-(4-methyl-4H-1,2,4-triazol-3-yl)-[1,1′-biphenyl]-3-yl)-7-(trifluoromethyl)benzo[d]oxazol-5-yl)methyl)amino)propan-2-ol] was tested, and the EC50 [1, 4] was 0.2 to 1 µM, the IC50 [2] was < 0.2 µM and the IC50 [3] was 1 to 10 µM.

In the case of `Cn1cnnc1-c1cc(F)ccc1-c1cccc(-c2nc3cc(CNCCO)cc(C(F)(F)F)c3o2)c1` [AN-2, 2-(((2-(4′-Fluoro-2′-(4-methyl-4H-1,2,4-triazol-3-yl)-[1,1′-biphenyl]-3-yl)-7-(trifluoromethyl)benzo[d]oxazol-5-yl)methyl)amino)ethan-1-ol], the EC50 [1, 4] is reported as 1 to 10 µM, the IC50 [2] is reported as < 0.2 µM and the IC50 [3] is reported as 1 to 10 µM.

With `Cn1cnnc1-c1cc(F)ccc1-c1cccc(-c2nc3cc(CNCC(C)(C)O)ccc3o2)c1` [AO-2, 1-(((2-(4′-Fluoro-2′-(4-methyl-4H-1,2,4-triazol-3-yl)-[1,1′-biphenyl]-3-yl)benzo[d]oxazol-5-yl)methyl)amino)-2-methylpropan-2-ol] the EC50 [1, 4] was 0.2 to 1 µM, the IC50 [2] was < 0.2 µM and the IC50 [3] was 1 to 10 µM.

In the case of `CN(Cc1cc(C(F)(F)F)c2oc(-c3cccc(-c4ccc(F)cc4-c4nncn4C)c3)nc2c1)CC(C)(C)O` [AP-2, 1-(((2-(4′-Fluoro-2′-(4-methyl-4H-1,2,4-triazol-3-yl)-[1,1′-biphenyl]-3-yl)-7-(trifluoromethyl)benzo[d]oxazol-5-yl)methyl)(methyl)amino)-2-methylpropan-2-ol], the EC50 [1, 4] is reported as 0.2 to 1 µM, the IC50 [2] is reported as < 0.2 µM and the IC50 [3] is reported as 1 to 10 µM.

With `C[C@H]1CCCN(Cc2cc(C(F)(F)F)c3oc(-c4cccc(-c5ccc(C#N)cc5-c5nncn5C)c4)nc3c2)C1` [AQ-6, (S)-2-(4-Methyl-4H-1,2,4-triazol-3-yl)-3′-(5-((3-methylpiperidin-1-yl)methyl)-7-(trifluoromethyl)benzo[d]oxazol-2-yl)-[1,1′-biphenyl]-4-carbonitrile] the EC50 [1, 4] was 0.2 to 1 µM, the IC50 [2] was < 0.2 µM and the IC50 [3] was 1 to 10 µM.

For `C[C@H](Cc1nncn1C)c1cccc(-c2nc3ccc(Br)c(C(F)(F)F)c3[nH]2)c1` [AV-9, (R)-6-Bromo-2-(3-(1-(4-methyl-4H-1,2,4-triazol-3-yl)propan-2-yl)phenyl)-7-(trifluoromethyl)-1H-benzo[d]imidazole], the EC50 [1, 4] was 1 to 10 µM, the IC50 [2] was 0.2 to 1 µM and the IC50 [3] was 10 to 50 µM.

In the case of `Cn1cnnc1-c1cc(F)ccc1-c1cccc(-c2nc3cc(CO)cc(C(F)(F)F)c3[nH]2)c1` [BJ-1, (2-(4′-Fluoro-2′-(4-methyl-4H-1,2,4-triazol-3-yl)-[1,1′-biphenyl]-3-yl)-7-(trifluoromethyl)-1H-benzo[d]imidazol-5-yl)methanol], the EC50 [1, 4] is reported as 1 to 10 µM, the IC50 [2] is reported as < 0.2 µM and the IC50 [3] is reported as 1 to 10 µM.

In the case of `Cn1cnnc1-c1cc(F)ccc1-c1cccc(-c2nc3cc(CN[C@@H]4CCC[C@H]4O)cc(C(F)(F)F)c3[nH]2)c1` [BK-2, (1R,2R)-2-(((2-(4′-Fluoro-2′-(4-methyl-4H-1,2,4-triazol-3-yl)-[1,1′-biphenyl]-3-yl)-7-(trifluoromethyl)-1H-benzo[d]imidazol-5-yl)methyl)amino)cyclopentan-1-ol], the EC50 [1, 4] is reported as 1 to 10 µM, the IC50 [2] is reported as < 0.2 µM and the IC50 [3] is reported as 1 to 10 µM.

For `C[C@@H]1CN(Cc2cc(C(F)(F)F)c3[nH]c(-c4cccc(-c5ccc(F)cc5-c5nncn5C)c4)nc3c2)CCO1` [BL-2, (R)-4-((2-(4′-Fluoro-2′-(4-methyl-4H-1,2,4-triazol-3-yl)-[1,1′-biphenyl]-3-yl)-7-(trifluoromethyl)-1H-benzo[d]imidazol-5-yl)methyl)-2-methylmorpholine], the EC50 [1, 4] was 1 to 10 µM, the IC50 [2] was < 0.2 µM and the IC50 [3] was 1 to 10 µM.

In the case of `Cn1cnnc1-c1cc(F)ccc1-c1cccc(-c2nc3cc(CN[C@@H]4CCC[C@@H]4O)cc(C(F)(F)F)c3[nH]2)c1` [BM-2, (1S,2R)-2-(((2-(4′-Fluoro-2′-(4-methyl-4H-1,2,4-triazol-3-yl)-[1,1′-biphenyl]-3-yl)-7-(trifluoromethyl)-1H-benzo[d]imidazol-5-yl)methyl)amino)cyclopentan-1-ol], the EC50 [1, 4] is reported as 0.2 to 1 µM, the IC50 [2] is reported as < 0.2 µM and the IC50 [3] is reported as 1 to 10 µM.
